Structures are written as SMILES.

Experiment [1] deals with ATXN3 transcripts containing exon 4. The experiment in a line: ATXN3 Quantitative Splicing Assay (qPCR, E4E5 primers/probe). The experiment is classed as cell-based. The conditions noted are these: Homo sapiens, SK-N-MC cells, compounds for 24 h. Here is the method: Example 34: ATXN3 Quantitative Splicing Assay
Human neuroblastoma SK-N-MC cells were plated in 384-well plates at 20,000 cells/well. Twenty-four hours after plating, cells were treated with compounds for 24 h at appropriate concentrations ranging from 30 μM to 0.6 nM (0.300 DMSO). Treated cells were lysed in 15 μL of lysis buffer, and cDNA was synthesized using the Fast Advanced Cells-to-Ct kit. Two […] of each cDNA was used in qPCR reactions to confirm the exon 4 skipped transcripts of ATXN3. A second set of primers/probe E4E5 was used to detect the transcripts containing exon 4. The third set of primers/probe E8E9 was used to detect total gene level of ATXN3. The qPCR reactions were prepared in 384-well plates in 10 μL volume, using TaqMan™ Fast Advanced Master Mix with primers and probes shown in the table below. Reactions were run in a Quant Studio 6 qPCR instrument with default settings.
The primers and probes are listed below in Table 4.

The test system of a further experiment is total ATXN3 protein. Put plainly: ATXN3 Total Protein Assay (Mesoscale Discovery, SK-N-MC cells). The experiment is classed as cell-based, Human. Particulars: incubation for 48 hours, MSD assay. Here is the method:
Example 35: ATXN3 Total Protein Assay
Human neuroblastoma SK-N-MC cells were seeded at 10,000 cells/well in 384 well plates one day prior to compound treatment. The concentrations of compounds were tested at appropriate doses ranging from 30 μM to 0.6 nM. After incubation for 48 hours, the cells were lysed with 25 μL of lysis buffer containing protease inhibitors, and total ATXN3 protein levels were assessed by Mesoscale Discovery (MSD) assay developed with one pair of anti-ATXN3 antibodies. The capture and detect antibodies were raised in mouse and rabbit respectively. Anti-rabbit MSD-ST antibody was used for secondary antibody.
ATXN3 recombinant protein was used for standards. The readouts were captured with 35 μL of MSD read buffer and multi-array 384-well high binding plates.

For the next experiment, the system named is ATXN3-HiBiT protein. Put plainly: ATXN3 Total Protein Assay (Kelly-ATXN3-HiBiT luminescence). The experiment is classed as cell-based. The conditions noted are these: Kelly-ATXN3-HiBiT cells, 48 h after addition of compound. The essentials: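 Kelly cells with homozygous C-terminal HiBiT knock-in on endogenous ATXN3, 2000 per well, dosed 24 h after seeding. HiBiT lytic luminescence read 48 h after compound; sister plate read with CellTiter-Glo for viability; fold change vs DMSO.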

In the case of `C[C@H](N)Cc1oc2c(NCc3cccs3)cc(C(N)=O)nc2c1Br` [Compound 288, 2-[(S)-2-aminopropyl]-3-bromo-7-thenylamino-1-oxa-4-aza-5-indenecarboxamide], the IC50 (in experiment [1]; in the experiment with total ATXN3 protein) was 10000 to 40000 nM throughout. In addition, the half-maximal effective concentration (EC50) with ATXN3-HiBiT protein was 10000 to 40000 nM.

In the case of `C[C@@H](F)[C@H](N)Cc1oc2c(NCc3ccccc3)cc(Cl)nc2c1Br` [Compound 93, 2-[(2R,3R)-2-amino-3-fluorobutyl]-7-benzylamino-3-bromo-5-chloro-1-oxa-4-azaindene], the IC50 (in experiment [1]; in the experiment on total ATXN3 protein) was 501 to 5000 nM throughout. In the experiment on ATXN3-HiBiT protein, the EC50 lay in the range of 501 to 5000 nM.

On to `C#Cc1c(C[C@H](C)N)oc2c(NCc3ccco3)cc(Cl)nc12` [Compound 64, 2-[(S)-2-aminopropyl]-5-chloro-3-ethynyl-7-(furfurylamino)-1-oxa-4-azaindene], for which the 50% inhibitory concentration (IC50) (in experiment [1]; in the experiment on total ATXN3 protein) was 0.01 to 100 nM each time. In the experiment with ATXN3-HiBiT protein, this molecule displayed an EC50 of 0.01 to 100 nM.

As for `C[C@H](N)Cc1oc2c(NCc3cccs3)cc(Cl)nc2c1-c1ccsc1` [Compound 260, 2-[(S)-2-aminopropyl]-5-chloro-7-thenylamino-3-(3-thienyl)-1-oxa-4-azaindene], the results for the IC50 (in experiment [1]; with total ATXN3 protein) were 10000 to 40000 nM and 501 to 5000 nM, respectively. The EC50 with ATXN3-HiBiT protein was 10000 to 40000 nM.

Regarding `Cc1coc(-c2c(C[C@H](C)N)oc3c(NCc4cccs4)cc(Cl)nc23)n1` [Compound 321, 2-[(S)-2-aminopropyl]-5-chloro-3-(4-methyl-1,3-oxazol-2-yl)-7-thenylamino-1-oxa-4-azaindene], the IC50 (in experiment [1]; in the experiment on total ATXN3 protein) was 501 to 5000 nM in each case. This molecule also had an EC50 in the experiment on ATXN3-HiBiT protein of 501 to 5000 nM.

On to `C[C@H](N)Cc1oc2c(NCc3cccs3)cc(C(=O)O)nc2c1Br` [Compound 167, 2-[(2S)-2-aminopropyl]-3-bromo-7-[(thiophen-2-ylmethyl)amino]furo[3,2-b]pyridine-5-carboxylic acid], for which the IC50 (in experiment [1]; with total ATXN3 protein) was 10000 to 40000 nM throughout. The molecule further yielded a half-maximal effective concentration (EC50) in the experiment with ATXN3-HiBiT protein of 10000 to 40000 nM.

Consider `COC[C@H](N)Cc1oc2c(NCc3nccs3)cc(Cl)nc2c1Cl` [Compound 53, 2-[(R)-2-amino-3-methoxypropyl]-3,5-dichloro-7-{[(1,3-thiazol-2-yl)methyl]amino}-1-oxa-4-azaindene], for which the IC50 (in experiment [1]; in the experiment on total ATXN3 protein) was 101 to 500 nM in each case. For the same molecule, the EC50 in the experiment with ATXN3-HiBiT protein fell in the range of 101 to 500 nM.

In the case of `C[C@H](F)[C@H](N)Cc1oc2c(NCc3nccs3)cc(Cl)nc2c1Br` [Compound 90, 2-[(2R,3S)-2-amino-3-fluorobutyl]-3-bromo-5-chloro-7-{[(1,3-thiazol-2-yl)methyl]amino}-1-oxa-4-azaindene], the IC50 (in experiment [1]; in the experiment with total ATXN3 protein) was 0.01 to 100 nM in each case. The molecule also displayed an EC50 with ATXN3-HiBiT protein of 0.01 to 100 nM.

Take `[2H]C([2H])(c1oc2c(NCc3cccs3)cc(Cl)nc2c1Br)[C@@H](N)COC` [Compound 304, 2-[(R)-2-amino-3-methoxy(1,1- ^2H2)propyl]-3-bromo-5-chloro-7-thenylamino-1-oxa-4-azaindene]: the half-inhibitory concentration (IC50) (in experiment [1]; in the experiment on total ATXN3 protein) was 0.01 to 100 nM each time. The EC50 in the experiment with ATXN3-HiBiT protein was 0.01 to 100 nM.

Turning to `Cc1c(C[C@@H](N)[C@H](C)F)oc2c(NCc3nccs3)cc(Cl)nc12` [Compound 106, 2-[(2R,3S)-2-amino-3-fluorobutyl]-5-chloro-3-methyl-7-{[(1,3-thiazol-2-yl)methyl]amino}-1-oxa-4-azaindene], the IC50 (in experiment [1]; in the experiment with total ATXN3 protein) was 101 to 500 nM throughout. In the experiment with ATXN3-HiBiT protein, this molecule returned a concentration for a half-maximal effect (EC50) of 101 to 500 nM.

As to `C#C[C@H](N)Cc1oc2c(NCc3cccs3)cc(Cl)nc2c1Br` [Compound 88, 2-[(R)-2-amino-3-butynyl]-3-bromo-5-chloro-7-thenylamino-1-oxa-4-azaindene], the IC50 (in experiment [1]; in the experiment with total ATXN3 protein) was 0.01 to 100 nM each time. This molecule also came in with a concentration for a half-maximal effect (EC50) with ATXN3-HiBiT protein of 101 to 500 nM.

As to `C/C=C/c1c(C[C@H](C)N)oc2c(NCc3cccs3)cc(Cl)nc12` [Compound 253, 3-[(E)-1-propenyl]-2-[(S)-2-aminopropyl]-5-chloro-7-thenylamino-1-oxa-4-azaindene], the IC50 (in experiment [1]; in the experiment with total ATXN3 protein) was 501 to 5000 nM each time. In the experiment with ATXN3-HiBiT protein, the concentration for a half-maximal effect (EC50) lay within 10000 to 40000 nM.

In the case of `C#Cc1cc(NCc2cccs2)c2oc(C[C@@H](N)COC)c(Br)c2n1` [Compound 151, 2-[(R)-2-amino-3-methoxypropyl]-3-bromo-5-ethynyl-7-thenylamino-1-oxa-4-azaindene], the half-inhibitory concentration (IC50) lay in the range of 0.01 to 100 nM in experiment [1] and 101 to 500 nM with total ATXN3 protein. For the same molecule, the EC50 in the experiment with ATXN3-HiBiT protein is 0.01 to 100 nM.

`C#Cc1c(C[C@@H](N)COC)oc2c(NCc3nccs3)cc(Cl)nc12` [Compound 65, 2-[(R)-2-amino-3-methoxypropyl]-5-chloro-3-ethynyl-7-{[(1,3-thiazol-2-yl)methyl]amino}-1-oxa-4-azaindene]: the IC50 (in experiment [1]; in the experiment on total ATXN3 protein) was 101 to 500 nM each time. For the same molecule, the EC50 with ATXN3-HiBiT protein lay within 101 to 500 nM.

As to `N[C@@H](CO)Cc1oc2c(NCc3ccco3)cc(Cl)nc2c1Cl` [Compound 23, (R)-2-amino-3-[3,5-dichloro-7-(furfurylamino)-1-oxa-4-aza-2-indenyl]-1-propanol], the half-maximal inhibitory concentration (IC50) (in experiment [1]; with total ATXN3 protein) was 0.01 to 100 nM throughout. In the experiment with ATXN3-HiBiT protein, this molecule yielded an EC50 of 0.01 to 100 nM.

With `Cc1c(CC(C)N)oc2c(NCc3ccncc3)cc(Cl)nc12` (stereo not drawn) [Compound 7, 2-(2-aminopropyl)-5-chloro-3-methyl-7-{[(4-pyridyl)methyl]amino}-1-oxa-4-azaindene], the IC50 (in experiment [1]; with total ATXN3 protein) was 501 to 5000 nM throughout.

As for `Cc1coc2c(NCc3ccncc3)cc(Cl)nc12` [Compound 5, [(4-pyridyl)methyl](5-chloro-3-methyl-1-oxa-4-aza-7-indenyl)amine], the IC50 (in experiment [1]; in the experiment on total ATXN3 protein) was 10000 to 40000 nM in each case.

As for `Clc1cc(NCc2cccs2)c2occ(C3CC3)c2n1` [Compound 32, (thenyl)(5-chloro-3-cyclopropyl-1-oxa-4-aza-7-indenyl)amine], the half-maximal inhibitory concentration (IC50) (in experiment [1]; in the experiment with total ATXN3 protein) was 501 to 5000 nM throughout.

Turning to `COC[C@H](N)Cc1oc2c(NCc3nccs3)cc(Cl)nc2c1Br` [Compound 49, 2-[(R)-2-amino-3-methoxypropyl]-3-bromo-5-chloro-7-{[(1,3-thiazol-2-yl)methyl]amino}-1-oxa-4-azaindene], the IC50 (in experiment [1]; with total ATXN3 protein) was 101 to 500 nM in each case.

Regarding `N[C@H](Cc1oc2c(NCc3ccco3)cc(Cl)nc2c1Br)CC1CC1` [Compound 56, 2-[(S)-2-amino-3-cyclopropylpropyl]-3-bromo-5-chloro-7-(furfurylamino)-1-oxa-4-azaindene], the half-maximal inhibitory concentration (IC50) (in experiment [1]; in the experiment with total ATXN3 protein) was 0.01 to 100 nM in each case.

Regarding `Cc1c(C[C@@H](C)N)oc2c(NCc3ccncc3)cc(Cl)nc12` (single isomer, unassigned) [Compound 4], the 50% inhibitory concentration (IC50) lay within 5000 to 10000 nM in experiment [1] and 501 to 5000 nM in the experiment on total ATXN3 protein.

In the case of `COC[C@H](N)Cc1oc2c(NCc3ccco3)cc(Cl)nc2c1Br` [Compound 38, 2-[(R)-2-amino-3-methoxypropyl]-3-bromo-5-chloro-7-(furfurylamino)-1-oxa-4-azaindene], the IC50 is 101 to 500 nM in experiment [1] and 0.01 to 100 nM with total ATXN3 protein.

In the case of `Clc1cc(NCc2ccncc2)c2occc2n1` [Compound 6, 5-chloro-N-(pyridin-4-ylmethyl)furo[3,2-b]pyridin-7-amine], the IC50 (in experiment [1]; in the experiment on total ATXN3 protein) was 10000 to 40000 nM each time.

Turning to `Cc1c(C[C@H](C)N)oc2c(NCc3ccncc3)cc(Cl)nc12` (single isomer, unassigned) [Compound 3], the concentration for half-maximal inhibition (IC50) (in experiment [1]; in the experiment on total ATXN3 protein) was 501 to 5000 nM throughout.

Broadly, the IC50 is the concentration at which inhibition is half-maximal. Low values mean greater potency in that assay, high ones weaker potency in that assay. As usually defined, the EC50 is the concentration that produces a half-maximal response. Read a high EC50 as lower potency in that assay.

The values above are taken from patent US20260001889A1, “COMPOSITIONS USEFUL FOR MODULATING SPLICING” (Skyhawk Therapeutics, Inc., priority 2022, published 2026).
